Experiments:
[1] = system: Cisplatin-induced vomiting; experiment: Activity against CisPlatin-induced vomiting; type: in vivo, Suncus murinus; conditions: 30 min before Cisplatin 40 mg/kg i.p.; for Number of Vomiting (Episodes) (mean ± S.E.M.): 5 to 120 min, control 28.0 ± 6.7; for Latency (mean ± S.E.M.): time to first vomiting, control 35.1 ± 4.4
Method: b) Activity against CisPlatin-induced vomiting
Female and male Suncus murinus animals weighing 23 to 68 g were used, one group consisting of 5 to 10 animals. According to the method of Matsuki et al. (Japan J. Pharmacol., 48, 303 (1988)], the animals were isolated in metal mesh cage (one animal/one cage). One hour after, the test compound or physiological saline (control) was intraperitoneally administered (i.p.) in a volume of 0.1 ml/10 g of body weight. Further 30 minutes after administration of the test compound, Cisplatin (40 mg/kg) was intraperitoneally administered. After administration of Cisplatin, a time period (latency) for the first vomiting and the number of frequencies (episodes) of vomiting caused in the period of 5 to 120 minutes after administration were determined. The latency and the number of frequencies in the test compound administered group were compared with those in the control group. The test of significance was performed by Student's t-test.

[2] = system: ddY strain male mice; experiment: Acute toxicity (MLD, Minimum Lethal Dose); type: in vivo; conditions: 7 days observation
Method: The test compound was orally and intraperitoneally administered to ddY strain male mice weighing 20 to 25 g. MLD (Minimum Lethal Dose) was determined by observing the mortality for 7 days after the administration.

| Compound | Number of Vomiting (Episodes) (mean ± S.E.M.) ([1]; 0.1 mg/kg i.p.) | Latency (mean ± S.E.M.) ([1]; 0.1 mg/kg i.p.) | Number of Vomiting (Episodes) (mean ± S.E.M.) ([1]; 0.5 mg/kg i.p., *p < 0.05) | Latency (mean ± S.E.M.) ([1]; 0.5 mg/kg i.p., *p < 0.05) | MLD (Minimum Lethal Dose) ([2]; i.p.) | MLD (Minimum Lethal Dose) ([2]; p.o.) |
| --- | --- | --- | --- | --- | --- | --- |
| CCCCn1c(=O)cc(C(=O)O[C@H]2C[C@H]3CC[C@@H](C2)N3C)c2ccccc21 [Compound 1Sa, Endo-(8-methyl-8-azabicyclo[3.2.1]oct-3-yl)-1-(n-butyl)-2-oxo-1,2-dihydro-4-quinolinecarboxylate] | 18.0 ± 1.6 Episodes | 44.3 ± 2.0 min | 6.8 ± 2.0 Episodes | 71.5 ± 12.9 min | 100 mg/kg | 200 mg/kg |
| CCCn1c(=O)cc(C(=O)O[C@H]2C[C@H]3CC[C@@H](C2)N3C)c2ccccc21 [Compound 2Sa, Endo-(8-methyl-B-azabicyclo[3.2.1]oct-3-yl)2-oxo-l-(n-propyl)-1,2-dihydro-4-quinolinecarboxylate] |  |  |  |  | 100 mg/kg | 200 mg/kg |
| CC(C)n1c(=O)cc(C(=O)O[C@H]2C[C@H]3CC[C@@H](C2)N3C)c2ccccc21 [Compound 3Sa, Endo-(8-methyl-8-azabicyclo[3.2.1]oct-3-yl)l-isopropyl-2-oxo-1,2-dihydro-4-quinolinecarboxylate] |  |  |  |  | 100 mg/kg | 200 mg/kg |
| CCCCn1c(=O)cc(C(=O)N[C@H]2C[C@H]3CC[C@@H](C2)N3C)c2ccccc21 [Compound 6Sa, Endo-N-(8-methyl-8-azabicyclo[3.2.1]oct-3-yl)-1-(n-butyl)-2-oxo-1,2-dihydro-4-quinolinecarboxamide] |  |  |  |  | > 100 mg/kg | > 300 mg/kg |
| CCCn1c(=O)cc(C(=O)N[C@H]2C[C@H]3CC[C@@H](C2)N3C)c2ccccc21 [Compound 7Sa, Endo-N-(8-methyl-8-azabicyclo[3.2.1]oct-3-yl)-1-(n-propyl)-2-oxo-1,2-dihydro-4-quinolinecarboxamide] |  |  |  |  | > 100 mg/kg | > 300 mg/kg |
| CN1[C@@H]2CC[C@H]1C[C@@H](NC(=O)c1cc(=O)n(C)c3ccccc13)C2 [Compound 8Sa, Endo-N-(8-methyl-8-azabicyclo[3.2.1]oct-3-yl)-1-methyl-2-oxo-1,2-dihydro-4-quinolinecarboxamide] |  |  |  |  | > 100 mg/kg | > 300 mg/kg |
| CCCCn1c(=O)cc(C(=O)N[C@@H]2C[C@H]3CC[C@@H](C2)N3C)c2ccccc21 [Compound 9Sa, Exo-N-(8-methyl-8-azabicyclo[3.2.1]oct-3-yl)-1-(n-butyl)-2-oxo-1,2-dihydro-4-quinolinecarboxamide] |  |  |  |  | 100 mg/kg | > 300 mg/kg |
| CCCCn1c(=O)cc(C(=O)N[C@H]2C[C@H]3CCC[C@@H](C2)N3C)c2ccccc21 [Compound 10Sa, Endo-N-(9-methyl-9-azabicyclo[3.3.1]non-3-yl)-1-(n-butyl)-2-oxo-1,2-dihydro-4-quinolinecarboxamide] |  |  |  |  | 100 mg/kg | 300 mg/kg |
| CCCCn1c(=O)c(C(=O)N[C@H]2C[C@H]3CC[C@@H](C2)N3C)c(O)c2ccccc21 [Compound 11Sa, Endo-N-(8-methyl-8-azabicyclo[3.2.1]oct-3-yl)-1-(n-butyl)-4-hydroxy-2-oxo-1,2-dihydro-3-quinolinecarboxamide] |  |  |  |  | > 100 mg/kg | > 300 mg/kg |
| CCn1c(=O)cc(C(=O)O[C@H]2C[C@H]3CC[C@@H](C2)N3C)c2ccccc21 [Compound 13Sa, Endo-(8-methyl-8-azabicyclo[3.2.1]oct-3-yl) 1-ethyl-2-oxo-1,2-dihydro-4-quinolinecarboxylate] |  |  |  |  | 100 mg/kg | 200 mg/kg |
| CC(C)Cn1c(=O)cc(C(=O)O[C@H]2C[C@H]3CC[C@@H](C2)N3C)c2ccccc21 [Compound 14Sa, Endo-(8-methyl-8-azabicyclo[3.2.1]oct-3-yl) 1-isobutyl-2-oxo-1,2-dihydro-4-quinolinecarboxylate] |  |  |  |  | 50 mg/kg | 200 mg/kg |
| CC(C)CCn1c(=O)cc(C(=O)O[C@H]2C[C@H]3CC[C@@H](C2)N3C)c2ccccc21 [Compound 15Sa, Endo-(8-methyl-8-azabicyclo[3.2.1]oct-3-yl) 1-isopentyl-2-oxo-1,2-dihydro-4-quinolinecarboxylate] |  |  |  |  | 100 mg/kg | 300 mg/kg |
| CCCCCn1c(=O)cc(C(=O)O[C@H]2C[C@H]3CC[C@@H](C2)N3C)c2ccccc21 [Compound 16Sa, Endo-(8-methyl-8-azabicyclo[3.2.1]oct-3-yl)2-oxo-1-n-pentyl-1,2-dihydro-4-quinolinecarboxylate] |  |  |  |  | 100 mg/kg | 300 mg/kg |
| CCCCCCn1c(=O)cc(C(=O)O[C@H]2C[C@H]3CC[C@@H](C2)N3C)c2ccccc21 [Compound 17Sa, Endo-(8-methyl-8-azabicyclo[3.2.1]oct-3-yl) 1-(n-hexyl)-2-oxo-1,2-dihydro-4-quinolinecarboxylate] |  |  |  |  | 100 mg/kg | > 300 mg/kg |
| CN1[C@@H]2CC[C@H]1C[C@@H](OC(=O)c1cc(=O)n(Cc3ccccc3)c3ccccc13)C2 [Compound 18Sa, Endo-(8-methyl-8-azabicyclo[3.2.1]oct-3-yl) 1-benzyl-2-oxo-1,2-dihydro-4-quinolinecarboxylate] |  |  |  |  | 100 mg/kg | > 300 mg/kg |
| CN1[C@@H]2CC[C@H]1C[C@@H](OC(=O)c1cc(=O)n(-c3ccccc3)c3ccccc13)C2 [Compound 19Sa, Endo-(8-methyl-8-azabicyclo[3.2.1]oct-3-yl) 2-oxo-1-phenyl-1,2-dihydro-4-quinolinecarboxylate] |  |  |  |  | 100 mg/kg | 200 mg/kg |
| CCCCn1c(=O)c(CC)c(C(=O)O[C@H]2C[C@H]3CC[C@@H](C2)N3C)c2ccccc21 [Compound 20Sa, Endo-(8-methyl-8-azabicyclo[3.2.1)oct-3-yl) 1-(n-butyl)-3-ethyl-2-oxo-1,2-dihydro-4-quinolinecarboxylate] |  |  |  |  | 100 mg/kg | 200 mg/kg |
| CN1[C@@H]2CC[C@H]1C[C@@H](OC(=O)c1c(O)c3cccnc3n(-c3ccccc3)c1=O)C2 [Compound 24Sa, Endo-(8-methyl-8-azabicyclo[3.2.1]oct-3-yl) 4-hydroxy-2-oxo-1-phenyl-1,2-dihydro-1,8-naphthylidine-3-carboxylate] |  |  |  |  | > 100 mg/kg | > 300 mg/kg |
| CCCCn1c(=O)c(O)c(C(=O)N[C@H]2C[C@H]3CC[C@@H](C2)N3C)c2ccccc21 [Compound 29Sa, Endo-N-(8-methyl-8-azabicyclo[3.2.1]oct-3-yl)-1-n-butyl-3-hydroxy-2-oxo-1,2-dihydro-4-quinolinecarboxamide] |  |  |  |  | > 100 mg/kg | > 300 mg/kg |
| CN1[C@@H]2CC[C@H]1C[C@@H](NC(=O)c1c(O)c3ccccc3n(-c3ccccc3)c1=O)C2 [Compound 30Sa, Endo-N-(8-methyl-8-azabicyclo[3.2.1]oct-3-yl)-4-hydroxy-2-oxo-1-phenyl-1,2-dihydro-3-quinolinecarboxamide] |  |  |  |  | 100 mg/kg | > 300 mg/kg |
| CCCCn1c(=O)c(C(=O)N[C@H]2C[C@H]3CC[C@@H](C2)N3C)c(O)c2cccnc21 [Compound 32Sa, Endo-N-(8-methyl-azabicyclo[3.2.1]oct-3-yl)-1-(butyl)-4-hydroxy-2-oxo-1,2-dihydro-1,8-naphthyridine-3-carboxamide] |  |  |  |  | 100 mg/kg | > 300 mg/kg |
